Laboratory results as given in patent publication US20260191925A2, “TISSUE OCCLUDING AGENT COMPRISING AN IEIKIEIKIEIKI PEPTIDE” (3-D Matrix, Ltd., priority 2008, published 2026).
Entries after “also recorded” stand apart in the source; their conditions may differ. No end group written: not given here.

Tests used:
[1] = test system: rabbit hepatic incision; test: Rabbit hepatic transection model (Example 9); format: in vivo; settings: 1% solution, 1 minute after treatment, after rinsing with physiological saline
Method: (§1) The rabbits were subcutaneously administered (3 mg/kg) Celactar 2% injection (2.0 g content as xylazine in 100 mL, product of Bayer Ltd.), and then ketamine (50 mg content as ketamine in 1 mL, product of Fuji Chemical Industries, Ltd.) was intravenously administered (10 mg/kg) for anesthesia.
The rabbits were laparotomized by median section and the hepatic left lobes were exposed and sharply transected with a scalpel to about 1 cm to induce hemorrhage.
After confirming exudative hemorrhage from the incision, the blood was removed as much as possible with gauze and the hepatic incision was treated with aqueous peptide solution.
The gelled aqueous peptide solution was removed 1 minute after treatment using physiological saline, and the presence of any hemorrhage from the hepatic incision was visually confirmed.

[2] = Self-assembly of aqueous peptide solution with rabbit bile (Example 10); format: physicochemical; settings: covered with rabbit bile, approximately 30 seconds
Method: as §1
The rabbits were laparotomized by median section, and bile was sampled from the gallbladder using a 23 G injection needle (Terumo Corp.).
Droplets of each aqueous peptide solution before self-assembly were prepared (diameter: approximately 5-8 mm), and the sampled bile was gently poured thereover so as to cover the aqueous peptide solution.

[3] = test system: rabbit portal vein stem; test: Rabbit portal vein stem injection needle perforation model, sugar-containing solutions (Example 4); format: in vivo
Method: as §1
(§2) The rabbits were laparotomized by median section. Approximately 10 cm of the abdominal aorta and portal vein stem was exposed, each blood vessel was ablated from the surrounding tissue, and the abdominal aorta was punctured with a 26 G, 25 G or 23 G injection needle (Terumo Corp.) while the portal vein stem was punctured with a 26 G injection needle (Terumo Corp.).
(§3) After 1-2 minutes of treatment, blood flow was released and the presence of hemorrhage was visually examined.

[4] = test system: rabbit gastric mucosa incision; test: Rabbit gastric mucosa incision model (Example 8); format: in vivo; settings: 1 minute after treatment, after rinsing with physiological saline
Method: as §1
The rabbits were laparotomized by median section and the stomachs were incised, after which the gastric mucosa was exposed and sharply incised with a scalpel to about 1 cm to induce hemorrhage.
After confirming blood oozing from the incision, the blood was removed as much as possible with gauze and the gastric mucosa incision was treated with aqueous peptide solution.
The gelled aqueous peptide solution was removed 1 minute after treatment using physiological saline, and the presence of any hemorrhage from the gastric mucosa incision was visually confirmed.

[5] = test system: rabbit abdominal aorta; test: Rabbit abdominal aorta injection needle perforation model (Example 1); format: in vivo; settings: for hemostatic effect (hemorrhage visually examined): after release of clamp
Method: as §1
as §2, with “a” for “a 26 G, 25 G or”
(§4) Upon confirming hemorrhage, blood flow at the peripheral end and central end was clamped with a hemostatic clamp, and after removing the hemorrhaged blood with physiological saline and gauze, it was immediately treated with the aqueous peptide solution.
(§5) After 1-2 minutes of treatment, blood flow was released and the presence of hemorrhage from the puncture site was visually examined.

[6] = test system: rabbit portal vein stem; test: Rabbit portal vein stem injection needle perforation model (Example 1); format: in vivo
Method: as §1
as §2, with “a” for “a 26 G, 25 G or”
as §4, §5

[7] = test system: resected liver surface; test: Rabbit partial liver resection model (Example 2); format: in vivo; settings: for hemorrhage from cut surface after rinsing with physiological saline: FIG. 2; for rabbits showing complete hemostasis: partial liver resection
Method: as §1
The rabbits were laparotomized by median section, and the hepatic left or right lobe was sharply excised to a size of approximately 5 cm width×3 cm length from the edge using a scalpel, to prepare a liver section.
Blood flow was released 1-2 minutes after treatment, the aqueous peptide solution that was gelled was removed by physiological saline, and the presence of any hemorrhage from the resected liver surface s was visually confirmed.
The resected liver surface in which a hemostatic effect was seen were fixed with 20% formalin and histopathologically evaluated by HE staining.

[8] = test system: abdominal aorta of rabbits with reduced blood clotting function; test: Abdominal aorta injection needle perforation model of rabbits with suppressed blood clotting function (heparin) (Example 3); format: in vivo, rabbit; settings: for Observations: heparin 1,000 units
Method: as §1
The rabbits were laparotomized by median section. Approximately 10 cm of the abdominal aorta was exposed, the blood vessel was ablated from the surrounding tissue, and the vessel was punctured with a 26 G, 25 G or 23 G injection needle (Terumo Corp.).
Upon confirming hemorrhage, blood flow at the peripheral end and center end was clamped with a hemostatic clamp, and after removing the hemorrhaged blood with physiological saline and gauze, it was immediately treated with the aqueous peptide solution.
as §3

[9] = test system: rabbit abdominal aorta; test: Rabbit abdominal aorta injection needle perforation model, sugar-containing solutions (Example 4); format: in vivo
Method: as §1, §2, §3

[10] = test system: rabbit bile duct wall; test: Rabbit bile duct injection needle perforation model (Example 6); format: in vivo; settings: 26 G needle
Method: as §1
The rabbits were laparotomized by median section. Approximately 10 cm of the bile duct was exposed, and after ablation from the surrounding tissue, the bile duct was punctured with a 26 G injection needle.
After confirming discharge of bile and continuous flow of bile, the bile flow was blocked with a hemostatic clamp.
The leaked bile was removed with physiological saline and gauze, and then treated with 3% aqueous peptide solution.
After 2 minutes of treatment, bile flow blockage was released and the presence of bile flow from the puncture site was visually examined.

[11] = test system: canine intravesical tumor / vesical mucosa; test: Canine intravesical tumorectomy, submucosal injection (Example 7); format: in vivo, dog
Method: Canine intravesical tumorectomy was carried out under general anesthesia management, by the following procedure.
After hypogastric incision with an electrocautery scalpel (Erbe, Inc.), the electrocautery scalpel was used for incision of the bladder to expose the intravesical tumor (pedunculated tumor with a base site diameter of approximately 0.5 cm that is elevated from the vesical mucosa).
3% Aqueous peptide solution was submucosally injected around the tumor base in 4 injections of 0.5 mL each, and elevation of the tumor on the mucosa was confirmed.
After elevating the tumor, the tumor was excised with an electronic scalpel.
The time from aqueous peptide solution injection to complete tumor excision was approximately 2 minutes.

[12] = test system: rat portal vein; test: Rat portal vein embolization (Example 11); format: in vivo; settings: 4 mL injected through portal vein stem, liver extracted after 5 minutes, HE staining
Method: The rats were subjected to inhalation anesthesia with diethyl ether (Kishida Chemical Co., Ltd.).
The rats were laparotomized by median section and the portal veins were exposed.
A 4 mL portion of aqueous peptide solution was injected through the portal vein stem with a 26 G injection needle (Terumo Corp.), and hemorrhage from the puncture site was immediately arrested with aqueous peptide solution.
The livers were extracted 5 minutes after injection and immediately fixed with 10% formalin (Wako Pure Chemical Industries, Ltd.).
The tissue was stained with haematoxylin eosin (HE) 1 week after fixing.

1% IEIK9 aqueous peptide solution: 1% aqueous peptide solution, peptide sequence IEIK9 (SEQ ID NO: 4) (Ac-IEIKIEIKI)
hemostatic effect (hemorrhage from hepatic incision) [1]: hemorrhage observed from incision site | hemostatic effect (hemorrhage from hepatic incision) ([1]; listed as IEIK9 aqueous peptide solution): no hemostatic effect | bile-induced self-assembly [2]: virtually no self-assembly seen

Ac-(IEIK)3I-CONH2 [1% IEIK13 aqueous peptide solution]
hemostatic effect (hemorrhage from hepatic incision) [1]: no hemorrhage observed from incision site | hemostatic effect (hemorrhage from hepatic incision) ([1]; listed as IEIK13 aqueous peptide solution): no hemorrhage was observed | bile-induced self-assembly [2]: self-assembly confirmed

Ac-(KLDL)3-CONH2 (Ac-KLDLKLDLKLDL-NH2) [1% KLD aqueous peptide solution]
hemostatic effect (hemorrhage from hepatic incision) [1]: no hemorrhage observed from incision site | hemostatic effect (hemorrhage from hepatic incision) ([1]; listed as KLD aqueous peptide solution): no hemorrhage was observed | bile-induced self-assembly [2]: self-assembly confirmed

Ac-(RADA)4-NH2 (Ac-RADARADARADARADA-NH2) [2% aqueous peptide solution]
hemostatic effect (compared between the solutions) ([3]; portal vein stem 26 G needle perforation): equivalent | Observation ([3]; portal vein stem, 26 G needle): Complete | hemorrhage from gastric mucosa incision [4]: no hemorrhage from incision site

Ac-(RADA)4-NH2 [1% aqueous peptide solution] (Ac-RADARADARADARADA-NH2)
hemostatic effect (hemorrhage visually examined) [5]: hemostasis was not complete; also recorded: resumed hemorrhage following declamp | hemostatic effect (hemorrhage visually examined) [6]: persistent phleborrhagia | hemorrhage from cut surface after rinsing with physiological saline [7]: no hemorrhage observed from cut surface | rabbits showing complete hemostasis [7]: two of two

Ac-(RADA)4-NH2 [1.5% PuraMatrix aqueous peptide solution]
bile-induced self-assembly [2]: self-assembly confirmed

Ac-(RADA)4-NH2 [3% aqueous peptide solution] (Ac-RADARADARADARADA-NH2)
rabbits demonstrating complete hemostasis [5]: two of two | hemostatic effect (hemorrhage visually examined) [5]: completely hemorrhage-arrested blood vessel | cases demonstrating complete hemostasis [6]: two of two | hemorrhage from cut surface after rinsing with physiological saline [7]: hemorrhage observed from cut surface | rabbits showing complete hemostasis [7]: 1 of 4 | Observations ([8]; 23 G needle): Complete hemostasis | Observations ([8]; 25 G needle): Complete hemostasis | Observations ([8]; 26 G needle): Complete hemostasis | hemostatic effect (hemorrhage visually examined) ([8]; heparin-treated rabbits, 26 G, 25 G and 23 G needle perforation): complete hemostasis; also recorded: perivascular hemorrhage of (b) not seen after declamp | Observation ([9]; 23 G needle): Complete | Observation ([9]; 25 G needle): Complete | Observation ([9]; 26 G needle): Complete | Observations [10]: Aqueous peptide solution gelled | bile duct wall occlusion effect (bile leakage) [10]: complete bile duct wall occlusion effect; also recorded: bile leakage of (b) not observed around bile duct | hemorrhage at excision site after tumor excision ([11]; excision by electrocautery): no hemorrhage at excision site after tumor excision | hemorrhage at excision site during tumor excision ([11]; excision by electrocautery): no hemorrhage at excision site during tumor excision | mucosal swelling (elevation) of excision site ([11]; submucosal injection, 4 injections of 0.5 mL): swelling of affected area confirmed | portal vein embolization [12]: Embolization of portal vein confirmed
